Laboratory results reported in patent publication US20250188085A1, “COMPOSITIONS AND METHODS FOR INHIBITION OF RAS” (THERAS, INC., priority 2022, published 2025).
pIC50: −log10 of the molar value. Read-outs that look alike come from different tables or passages of the source.

Assays:
[1] = molecular target: T1, GDP-loaded KRAS4b (amino acids 1-169) G12C/C118S protein (Homo sapiens, UniProt P01116, C118S/G12C); experiment: Covalent cysteine 12 modification by MALDI-TOF MS, GDP-loaded KRAS G12C; assay type: binding; conditions: 15 minutes reaction time point
T1 construct: KRAS4b (amino acids 1-169) G12C/C118S protein; made in house
Experimental: (§1) Reaction: 1 μM of GppNHp-, GTP-, or GDP-loaded KRAS4b (amino acids 1-169) G12C/C118S protein (produced in-house by Protein Expression Laboratory, FNLCR/Leidos Biomed) in 20 mM 4-(2-hydroxyethyl)-1-piperazineethanesulfonic acid (HEPES) buffer containing 150 mM NaCl, 1 mM MgCl2, pH 7.3 was prepared freshly before assay. Ten-μL aliquots of protein were dispensed onto low volume 384-well plate, then 375 nL DMSO, and 25 nL of tested compounds from 5 mM DMSO stocks were added to appropriate wells using ECHO 555 acoustic liquid handler (Labcyte Inc.). For each reaction/assay, three blanks were prepared by mixing 10 μL of protein solution with 400 nL DMSO. The contents of the wells were carefully mixed by aspiration, and then each plate was sealed with an adhesive cover, centrifuged at 2000 g for 1 minute, and kept in the dark at room temperature until 5 min, 15 min, 30 min, or 2 h collections.
(§2) Target pretreatment: Before each assay MALDI target (Bruker MPT 384 ground steel BC) was pre-treated by pipetting on each spot 0.75 μL of saturated sinapinic acid in acetonitrile (ACN).
(§3) Sample preparation: At collection time point, 2 μL of reaction mixtures were pipetted out into 20 μL MALDI matrix solution (saturated solution of sinapinic acid in 1:1 ACN:water solution containing 0.75% trifluoroacetic acid (TFA)) deposited on 384 well polypropylene plate. Resulting solution was mixed by aspiration, centrifuged at 2000 g for 1 minute, then 1 μL aliquots were dispensed on pre-treated MALDI target using Beckman Coulter Biomek FXP 96/384-Span-8 Laboratory Automation Workstation. Finally, the MALDI target was dried under mild vacuum to produce spots with fine crystalline structure.
(§4) Measurements: MALDI-TOF measurements were performed on a Bruker Daltonics rapiflex Tissuetyper TOF-TOF mass spectrometer using linear mode and mass range from 18.6 to 21.6 kDa. Detector gain was set to 3.3× (483 V), sample rate to 5 GS/s, real time smoothing to medium (175 MHz), laser smart beam pattern was set to: “MS Thin Layer M5”, and the laser frequency was 10000 Hz. Spectra were automatically collected using custom Auto Xecute method. Laser power was auto adjusted using fuzzy control. The peak selection range was set to be between 19000 and 21500 Da. Peak evaluation uses half width parameter set to be smaller than 40 Da for processed spectrograms (centroid peak detection; smoothed by SavitzkyGolay algorithm using 7 m/z width and 2 cycles; baseline was subtracted using median algorithm with flatness 1 and median level 0.01). Fuzzy control used Proteins/Oligonucleotides protocol with minimum half width 1/10 times above threshold. Up to 40000 satisfactory shots were collected in 10000 shot steps. Dynamic termination was implemented to finish data collection when peak signal/noise ratio was reaching value of 50.
(§5) Spectra processing: Spectra were smoothed by SavitzkyGolay algorithm using 7 m/z width and three cycles. Centroid peak detection algorithm was used with signal to noise threshold set to 6, relative intensity threshold 4%, peak width 10 m/z and median baseline subtraction using flatness of 1 and median level of 0.01. Peak intensity and area under the peak were evaluated and recorded for all peaks between 19,300 Da and 21,550 Da.
(§6) Calculation of percent modification: Percent modification was calculated as a ratio of peak height for protein modified by compound to sum of peak height of remaining protein plus peak height for protein modified by compound. If multiple modifications were observed each was calculated as a ratio of peak height for given modification versus sum of peak heights for all observed protein species. Data reported in Table 5 are from 15 minutes reaction time point.

[2] = molecular target: T2, GppNHp-loaded KRAS4b (amino acids 1-169) G12C/C118S protein (Homo sapiens, UniProt P01116, C118S/G12C); experiment: Covalent cysteine 12 modification by MALDI-TOF MS, GppNHp-loaded KRAS G12C; assay type: binding; conditions: 15 minutes reaction time point
T2 construct: KRAS4b (amino acids 1-169) G12C/C118S protein; made in house
Experimental: as §1, §2, §3, §4, §5, §6

[3] = test system: pERK in NCI-H358 cells; experiment: Cell-based pERK HTRF assay; conditions: 30 min incubation, read-out: pERK in NCI-H358 cell inhibition IC50
Experimental: pERK assays (Perkin Elmer) were used to determine the effectiveness of compounds of the present disclosure in disrupting KRAS G12C protein/effector signaling in cells.
On Day 1, cells (NCI-H358) were seeded into 96-well plates at 4×10^4 cells/well in complete growth media (RPMI, 10% FBS).
On Day 2, cells were treated with compounds at 0.25% DMSO. The source plate was created with compounds diluted in media at 5-fold the final assay concentration. The compounds were run in a 9-point concentration curve starting at 75 μM, with a 3-fold dilution between concentrations. 20 μL was transferred onto the cell plates (final volume in wells was 100 μL). Plates were harvested after 30 min incubation by aspirating media and adding kit-supplied 1× supplemented lysis buffer to all wells (75 μl per well). Plates were then placed on a plate shaker and incubated at 850 rpm for an additional 30 min.
Antibody mixture solution was prepared by diluting aliquoted d2 and Eu Cryptate antibodies 1:20 in kit supplied detection buffer, then mixed the diluted antibodies solutions (1:1 v:v). 4 μL of this solution was then added to a 384-well detection plate (Perkin Elmer; 6008230).
Samples were homogenized by pipetting up and down and then transferred (16 μL of cell lysates) from the 96-well cell culture plate to two wells of the HTRF 384-well detection plate containing the antibody solution. Plates were centrifuged (524 g for Imin) and allowed to incubate between 4 and 24 h at room temperature. Maximum signal is reached after 4 h incubation time and remains stable over a period of 24 hours. Therefore, readings can be made between 4 and 24 h of incubation. Plates were centrifuged again (524 g for Imin) and analyzed on the En Vision plate reader using the following settings: Excitation 320 nm, Bandwidth 75 nm; Emission 615 nm, Bandwidth 85 nm; Gain 100%; Flashes 100; Lag 60 μs.

[4] = molecular target: T3, Avi-KRAS G12C (1-169) GppNHp/RAF1 RBD-3×FLAG (52-151) (Homo sapiens, UniProt P01116, G12C); experiment: Raf1 RBD-KRAS G12C-GppNHp disruption (protein:protein interaction HTRF assay); assay type: biochemical
T3 construct: Avi-KRAS G12C (1-169) GppNHp/RAF1 RBD-3×FLAG (52-151)
Experimental: A protein: protein (PPI) interaction Homogeneous Time Resolved Fluorescence (HTRF) assay was used to determine the effectiveness of compounds of the present disclosure in disrupting KRAS G12C protein and effector (RAF1 or PIK3CA) binding.
The HTRF assay used the following reagents and proteins: 50 nM Avi-KRAS G12C Q25A (1-169) GppNHp/3×FLAG-PI3K CA (157-299); 50 nM Avi-KRAS G12C (1-169) GppNHp/RAF1 RBD-3×FLAG (52-151); 35 nM Avi-PI3K RBD-3×FLAG; Assay Buffer: 50 mM Tris pH 7.5, 100 mM NaCl, 5 mM MgCl2, 0.1% BSA, 0.01% Tween 20, 10% DMSO; Bead Buffer: 50 mM Tris pH 7.5, 0.01% Tween 20; Assay volume: 20 μL (384 well plate-low volume format); and Compound titration: 30-0.02 μM, 3× dilution series.
The HTRF assay employed the following protocol:
Compounds were dispensed in assay plate (384-well, Grenier Bione #784075) using Echo (model 555) with dose response settings: 200 nL final volume, titration from 100 μM as a 10-point dilution series. KRAS proteins were prepared in assay buffer, and dispensed on plates, 5 μL per well, then incubated for 1 h at room temperature, with 700 rpm shaking. RAF1 RBD and PI3K RBD CA were prepared in assay buffer, dispensed onto plates, 5 μL per well, and then incubated for 1 h at room temperature, with 700 rpm shaking. Reagent mix was then prepared and dispensed on plates, 10 μL per well, and then incubated for 1 h at room temperature, with 700 rpm shaking.
Plates were analyzed on an Envision plate reader using the following setting: Excitation 320 nm, Bandwidth 75 nm; Emission 615 nm, Bandwidth 85 nm; Gain 100%; Flashes 100; Lag 60 μs. Data was reported as percentage of activity, with DMSO as 100%. Data was plotted and analyzed using Prism 8.

Structure (SMILES)	GDP-KRAS G12C percent of modification [1]	GppNHp-KRAS G12C percent of modification [2]	pIC50 [3]	pIC50 [4]	pIC50 ([3]; Homo sapiens, NCI-H358, 0.5 h)
C=CC(=O)N1CC[C@@H](Oc2nc(OC[C@@H]3C[C@@H](F)CN3C)nc3c(F)c(-c4ccc(F)c5sc(N)nc45)c(C(F)(F)F)cc23)C1 (atropisomer, axis not shown) [Compound 19]	D (percent of modification <10%)	D (percent of modification <10%)	< 6.00	4.70 to 5.30	–
C=CC(=O)N1CC[C@@H](Oc2nc(OC[C@@H]3CC(C)(C)CN3C)nc3c(F)c(-c4ccc(F)c5sc(N)nc45)c(C(F)(F)F)cc23)C1 (atropisomer, axis not shown) [Compound 17]	D (percent of modification <10%)	D (percent of modification <10%)	< 6.00	< 4.70	–
C=CC(=O)N1CC(Oc2nc(OC[C@@H]3CCCN3C)nc3c(F)c(-c4ccc(F)c5sc(N)nc45)c(C(F)(F)F)cc23)C1 [Compound 22]	A (percent of modification ≥70%)	C (10%≤modification <50%)	–	≥ 6.30	≥ 7.00
C=CC(=O)N1CC(Oc2nc(OC[C@@H]3C[C@@H](OC)CN3C)nc3c(F)c(-c4ccc(F)c5sc(N)nc45)c(C(F)(F)F)cc23)C1 [Compound 26]	A (percent of modification ≥70%)	C (10%≤modification <50%)	–	5.30 to 6.30	≥ 7.00
C=CC(=O)N1CC[C@H](Oc2nc(OC[C@@]34CCCN3C[C@H](F)C4)nc3c(F)c(-c4ccc(F)c5sc(N)nc45)c(C(F)(F)F)cc23)C1 (atropisomer, axis not shown) [Compound 9]	C (10%≤modification <50%)	D (percent of modification <10%)	6.00 to 7.00	5.30 to 6.30	–
C=CC(=O)N1CC[C@H](Oc2nc(OC[C@@]34CCCN3C[C@H](F)C4)nc3c(F)c(-c4ccc(F)c5sc(N)nc45)c(Cl)cc23)C1 (atropisomer, axis not shown) [Compound 8]	C (10%≤modification <50%)	D (percent of modification <10%)	< 6.00	5.30 to 6.30	–
C=CC(=O)N1CCC[C@@H](Oc2nc(OC[C@@H]3C[C@@H](F)CN3C)nc3c(F)c(-c4ccc(F)c5sc(N)nc45)c(C(F)(F)F)cc23)C1 (atropisomer, axis not shown) [Compound 20]	B (50≤percent of modification <70%)	D (percent of modification <10%)	–	4.70 to 5.30	< 6.00
C=CC(=O)N1CC[C@@H](Oc2nc(OC[C@@]34CCCN3C[C@H](F)C4)nc3c(F)c(-c4ccc(F)c5sc(N)nc45)c(C(F)(F)F)cc23)C1 (single isomer, unassigned) [Compound 12]	D (percent of modification <10%)	D (percent of modification <10%)	6.00 to 7.00	5.30 to 6.30	–

Results, then the compound that gave them:

GDP-KRAS G12C percent of modification [1]	GppNHp-KRAS G12C percent of modification [2]	pIC50 [3]	pIC50 [4]	pIC50 ([3]; Homo sapiens, NCI-H358, 0.5 h)	Structure (SMILES)
D (percent of modification <10%)	D (percent of modification <10%)	< 6.00	5.30 to 6.30	–	C=CC(=O)N1CC[C@@H](Oc2nc(OC[C@]34CCCN3C[C@H](OC)C4)nc3c(F)c(-c4ccc(F)c5sc(N)nc45)c(C(F)(F)F)cc23)C1 (single isomer, unassigned) [Compound 31]
A (percent of modification ≥70%)	B (50≤percent of modification <70%)	–	≥ 6.30	≥ 7.00	C=CC(=O)N1CC(Oc2nc(OC[C@@]34CCCN3C[C@H](F)C4)nc3c(F)c(-c4ccc(F)c5sc(N)nc45)c(C(F)(F)F)cc23)[C@@H](C)C1 (stereo partly drawn) [Compound 34]
C (10%≤modification <50%)	D (percent of modification <10%)	6.00 to 7.00	5.30 to 6.30	–	C=CC(=O)N1CC(Oc2nc(OC[C@@]34CCCN3C[C@H](F)C4)nc3c(F)c(-c4ccc(F)c5sc(N)nc45)c(C(F)(F)F)cc23)[C@@H](C)C1 (stereo partly drawn) [Compound 35]
A (percent of modification ≥70%)	A (percent of modification ≥70%)	≥ 7.00	≥ 6.30	–	C=CC(=O)N1CC[C@@H](Oc2nc(OC[C@]34CCCN3C[C@H](OC)C4)nc3c(F)c(-c4ccc(F)c5sc(N)nc45)c(C(F)(F)F)cc23)C1 (single isomer, unassigned) [Compound 30]
